Assay results taken from patent publication US20250195613A1, “COMPOSITIONS AND METHODS FOR REDUCING BIOFILM FORMATION” (Trustees of Tufts College, priority 2022, published 2025).
“Also recorded” adds a separate entry of the source.

What was measured:
Assay type in all cases: cell-based, Streptococcus mutans
S. mutans UA159 = assay: Biofilm growth CFU assay (fraction biofilm and total growth); conditions: for fractional biofilm formation (cells in biofilm relative to whole population), in words / overall (total) growth of the bacterial population / toxicity to S. mutans: 5 h, TH25% with 1% sucrose; for fractional biofilm formation (cells in biofilm relative to whole population), in words: 96-well polystyrene plate; for overall (total) growth of the bacterial population / toxicity to S. mutans: biofilm CFU per ml + supernatant CFU per ml
Protocol: The bacterial strain S. mutans UA159 (ATCC, 700610) was originally isolated from a child with active cavities. Bacteria were cultivated in Bacto Todd-Hewitt broth (TH; BD, 249240) or brain-heart infusion (BHI; BD, 237500) 1.5% agar plates at 37° C. with 5% CO2. To promote biofilm formation, S. mutans was grown in 25% TH supplemented with 1% sucrose.
(§1) Overnight cultures of S. mutans UA159 were inoculated from glycerol stocks and grown for 12-18 h in 50% TH at 37° C. with 5% CO2. Biofilms were prepared by diluting overnight cultures 1:20 into 50-100 μl of media (TH25% with 1% sucrose) and any polymer solution in a 96-well polystyrene plate for a starting inoculum of 10^7-10^8 CFU per ml. The cultures were then incubated statically for 5 hours at 37° C. with 5% CO2.
To measure total growth and relative biofilm formation, the number of cells in the biofilm and in suspension were counted using a colony forming unit (CFU) assay as previously described. See Werlang, C. A. et al., “Mucin O-glycans suppress quorum-sensing pathways and genetic transformation in Streptococcus mutans,” Nat. Microbiol. 1-10 (2021) doi: 10.1038/s41564-021-00876-1, which is incorporated herein in its entirety by reference for all purposes. Briefly, the supernatant was removed and transferred to a new 96-well plate, the biofilm was washed twice with 100 μl of phosphate-buffered saline (PBS), and the washes were added to the supernatant. The biofilm was then detached and resuspended in 100 μl of PBS by vigorously scraping with a pipette tip for 30 s. Each culture fraction was then serially diluted and plated on BHI agar. Colonies were counted after 24 h growth at 37° C. with 5% CO2. The fraction biofilm was calculated as (biofilm CFU per ml)/(biofilm CFU per ml+supernatant CFU per ml). The total growth was calculated as biofilm CFU per ml+supernatant CFU per ml. All of the conditions had at least three biological replicates (individual data points shown on graphs).

S. mutans biofilms [1] = assay: Total biofilm biomass by crystal violet staining; conditions: for total bacterial biomass incl. exopolysaccharides (crystal violet), in words: OD 580 nm
Protocol: as §1
Total biofilm biomass was measured using crystal violet staining. The supernatant was aspirated, and the biofilm was washed twice with 100 μl of PBS. Then 100 μl of 0.1% crystal violet was added to each well and incubated for 15 minutes at room temperature. The crystal violet solution was removed, and the stained biofilms were washed five times with 200 μl of distilled water. Finally, 100 μl of 30% acetic acid was added to each well to extract the absorbed crystal violet, and the OD was measured at 580 nm on a microtiter plate reader.

S. mutans biofilms [2] = assay: Confocal microscopy of SYTO9-stained biofilms; conditions: SYTO9 stain
Protocol: For confocal microscopy, S. mutans biofilms were prepared as described above on 96-well glass-bottom plates with 5 nM of SYTO9 green fluorescent nucleic acid stain (ThermoFisher, S34854) added to the cultures. Cultures were imaged on a confocal laser-scanning microscope (LSM 800; Zeiss) with a 63×/1.4 NA oil immersion objective with a step size of 0.5 μm. The excitation wavelength for SYTO9 was 488 nm. At least three stacks were recorded for each well, and at least three independent wells were analyzed for each condition. Images were analyzed with Zeiss ZEN 2.1 imaging software (Thornwood, NY, USA).

S. mutans = assay: Polymer attachment assay (bacterial attachment to polymer coating); conditions: coatings from 2 mg per ml polymer on polystyrene, 1 hour at 37° C.
Protocol: Bacterial attachment to polymer coating was assayed as previously described. See Co, J. Y., Crouzier, T. & Ribbeck, K., “Probing the Role of Mucin-Bound Glycans in Bacterial Repulsion by Mucin Coatings,” Adv. Mater. Interfaces 2, 1500179 (2015), which is incorporated herein in its entirety by reference for all purposes. Briefly, coatings were prepared by incubating 100 μl of polymer solutions (2 mg per ml in Milli-Q purified water) on 96-well polystyrene plates for 2 h at 37° C., followed by three washes with 200 μl of sterile-filtered distilled water. Overnight cultures of S. mutans were centrifuged and resuspended in sterile PBS at an OD600 of 0.4, and 50 μl of the washed culture were added to each well. The bacteria were incubated on the coating for 1 hour at 37° C. To measure cell attachment, unattached bacteria were aspirated, wells were washed three times with 200 μl of PBS, and the remaining bacteria were detached with a pipette and resuspended in PBS before being quantified by a CFU assay.

CC(=O)N[C@H]1C(O)O[C@H](CO)[C@H](O)[C@@H]1O (stereo partly drawn) [Soluble GalNAc, N-acetyl galactosamine]
fractional biofilm formation (cells in biofilm relative to whole population), in words (S. mutans UA159): do not have a statistically significant impact

CC(=O)N[C@H]1[C@H]([C@H](O)[C@H](O)CO)OC(O)(C(=O)O)C[C@@H]1O (stereo partly drawn) [soluble NeuNAc, N-Acetylneuraminic acid]
fractional biofilm formation (cells in biofilm relative to whole population), in words (S. mutans UA159): small proportional reduction in the fraction of biofilm
overall (total) growth of the bacterial population / toxicity to S. mutans (S. mutans UA159): toxic to S. mutans; also recorded: strong killing effect
total bacterial biomass incl. exopolysaccharides (crystal violet), in words (S. mutans biofilms [1]): reduction in total bacterial biomass

MUC5B: mucin purified by liquid chromatography from pooled human submandibular saliva
surface attachment / community structure by confocal microscopy (S. mutans biofilms [2]): no longer attached to the surface
surface attachment / community structure by confocal microscopy (S. mutans biofilms [2]; listed as mucin): no longer attach to the surface
biofilm fraction of culture (S. mutans UA159; 0.5% MUC5B mucin): 30%
overall (total) growth of the bacterial population / toxicity to S. mutans (S. mutans UA159): do not affect the overall growth
total bacterial biomass incl. exopolysaccharides (crystal violet), in words (S. mutans biofilms [1]): reduce the total bacterial biomass
reduction of biofilm biomass (S. mutans biofilms [1]; crystal violet staining): 77%
S. mutans binding to polymer coating (S. mutans): do not strongly bind
S. mutans binding to polymer coating (S. mutans; listed as MUC5B mucin): did not bind
